Key:
Assay in all cases: IA-DTB cysteine engagement
Assay type in all cases: binding
BLOC1S2_C41 = target: T1, BLOC1S2_C41 (Homo sapiens, UniProt Q6QNY1); settings: 22Rv1 cells, 20 μM probe, 1 h, relative to DMSO
T1 construct: endogenous in cells; host or cells: 22Rv1
T1 sequence (Q6QNY1 1-142): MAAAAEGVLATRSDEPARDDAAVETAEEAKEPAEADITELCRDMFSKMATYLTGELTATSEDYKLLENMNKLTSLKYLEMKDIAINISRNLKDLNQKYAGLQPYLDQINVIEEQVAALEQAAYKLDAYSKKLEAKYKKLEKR
Method in brief: (§1)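 First, cells are exposed to electrophilic probes in situ. Next, lysates are labeled with IA-DTB (1 h, ambient temperature), reduced, alkylated and trypsin-digested. Then, IA-DTB peptides are enriched on streptavidin, TMT-labeled and analyzed, with ratios taken against DMSO channels.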

CCNE2_C109 = target: T2, CCNE2_C109 (Homo sapiens, UniProt O96020); settings: 22Rv1 cells, 20 μM probe, 1 h, relative to DMSO
T2 construct: endogenous in cells; host or cells: 22Rv1
Method in brief: as §1

GNPAT_C54 = target: T3, GNPAT_C54 (Homo sapiens, UniProt O15228); settings: 22Rv1 cells, relative to DMSO; for % engagement GNPAT_C54: 20 μM probe, 1 h; for % engagement GNPAT_54: 5 μM probe, 1 h (FIG. 5B)
T3 construct: endogenous in cells; host or cells: 22Rv1
T3 sequence (O15228 1-680): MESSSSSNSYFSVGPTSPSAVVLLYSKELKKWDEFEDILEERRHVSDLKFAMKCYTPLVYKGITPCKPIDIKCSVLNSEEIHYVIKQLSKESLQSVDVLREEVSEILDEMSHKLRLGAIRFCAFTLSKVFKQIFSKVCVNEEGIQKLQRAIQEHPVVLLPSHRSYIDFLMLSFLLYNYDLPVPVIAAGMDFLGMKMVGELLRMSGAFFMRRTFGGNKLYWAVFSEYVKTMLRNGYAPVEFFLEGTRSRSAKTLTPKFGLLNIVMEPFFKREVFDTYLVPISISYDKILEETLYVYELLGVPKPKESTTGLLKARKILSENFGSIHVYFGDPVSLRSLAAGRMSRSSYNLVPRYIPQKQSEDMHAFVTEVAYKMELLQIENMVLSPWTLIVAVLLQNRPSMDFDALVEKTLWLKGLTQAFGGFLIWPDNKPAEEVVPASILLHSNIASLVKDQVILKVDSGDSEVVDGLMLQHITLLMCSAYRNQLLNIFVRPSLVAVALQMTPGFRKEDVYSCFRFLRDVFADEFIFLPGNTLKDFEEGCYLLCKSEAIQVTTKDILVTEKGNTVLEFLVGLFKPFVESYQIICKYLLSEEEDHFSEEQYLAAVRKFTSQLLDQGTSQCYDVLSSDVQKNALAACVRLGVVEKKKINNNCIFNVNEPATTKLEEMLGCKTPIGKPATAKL
Method in brief: as §1

SLC25A39_C334 = target: T4, SLC25A39_C334 (Homo sapiens, UniProt Q9BZJ4); settings: 22Rv1 cells, 20 μM probe, 1 h, relative to DMSO
T4 construct: endogenous in cells; host or cells: 22Rv1
T4 sequence (Q9BZJ4 1-359): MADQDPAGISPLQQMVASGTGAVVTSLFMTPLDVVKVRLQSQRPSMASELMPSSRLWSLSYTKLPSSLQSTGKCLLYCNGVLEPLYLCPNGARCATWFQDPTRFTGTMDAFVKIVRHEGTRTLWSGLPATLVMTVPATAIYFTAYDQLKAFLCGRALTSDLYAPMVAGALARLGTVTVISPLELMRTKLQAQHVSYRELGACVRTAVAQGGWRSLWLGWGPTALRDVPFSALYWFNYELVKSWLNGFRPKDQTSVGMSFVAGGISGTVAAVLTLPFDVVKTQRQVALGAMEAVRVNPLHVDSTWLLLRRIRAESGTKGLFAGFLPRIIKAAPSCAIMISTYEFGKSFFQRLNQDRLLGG
Method in brief: as §1

T2 sequence (O96020 whole entry): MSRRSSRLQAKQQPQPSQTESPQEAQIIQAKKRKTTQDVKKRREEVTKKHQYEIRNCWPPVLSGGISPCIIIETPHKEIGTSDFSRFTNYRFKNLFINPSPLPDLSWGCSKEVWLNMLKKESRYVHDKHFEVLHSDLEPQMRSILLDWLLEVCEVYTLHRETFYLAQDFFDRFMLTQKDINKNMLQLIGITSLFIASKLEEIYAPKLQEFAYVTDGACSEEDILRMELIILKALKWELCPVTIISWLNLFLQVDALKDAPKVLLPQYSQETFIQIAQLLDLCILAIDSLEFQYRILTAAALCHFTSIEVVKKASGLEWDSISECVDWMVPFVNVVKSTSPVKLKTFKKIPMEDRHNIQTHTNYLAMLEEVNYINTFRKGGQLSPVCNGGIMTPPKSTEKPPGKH

SMILES | % engagement BLOC1S2_C41 (BLOC1S2_C41) [%] | % engagement CCNE2_C109 (CCNE2_C109) [%] | % engagement GNPAT_C54 (GNPAT_C54) [%] | % engagement SLC25A39_C334 (SLC25A39_C334) [%] | % engagement GNPAT_54 (GNPAT_C54) [%]
C=CC(=O)N1C[C@@H](c2ccc(Br)cc2)[C@H]1C(=O)Nc1cccc2cccnc12 [MY-1A, (2S,3R)-1-acryloyl-3-(4-bromophenyl)-N-(quinolin-8-yl)azetidine-2-carboxamide] | 6 | 77 | 88.5 | 23 | –
C=CC(=O)N1C[C@H](c2ccc(Br)cc2)[C@@H]1C(=O)Nc1cccc2cccnc12 [MY-1B, (2R,3S)-1-acryloyl-3-(4-bromophenyl)-N-(quinolin-8-yl)azetidine-2-carboxamide] | 70 | 76.75 | 91.5 | 45.5 | 73.17
C=CC(=O)N1C[C@H](c2ccc(Br)cc2)[C@H]1C(=O)Nc1cccc2cccnc12 [MY-3A, (2S,3S)-1-acryloyl-3-(4-bromophenyl)-N-(quinolin-8-yl)azetidine-2-carboxamide] | 3.5 | 21.75 | 54.25 | 30.5 | –
C=CC(=O)N1C[C@H](c2ccc(Br)cc2)[C@H]1C(=O)Nc1cccc2cccnc12 [MY-3B, (2S,3S)-1-acryloyl-3-(4-bromophenyl)-N-(quinolin-8-yl)azetidine-2-carboxamide] | 66.5 | 42.75 | 77.5 | 72 | –
CC#CC(=O)N1C[C@H](c2ccc(Br)cc2)[C@@H]1C(=O)Nc1cccc2cccnc12 [MY-45B, (2R,3S)-3-(4-bromophenyl)-1-(but-2-ynoyl)-N-(quinolin-8-yl)azetidine-2-carboxamide] | – | – | – | – | 51.83

From patent US20250034216A1, “STEREOSELECTIVE COVALENT LIGANDS FOR ONCOGENIC AND IMMUNOLOGICAL PROTEINS” (The Scripps Research Institute, priority 2021, published 2025)
